Source: patent US9149038B2, “4-amino-6-(heterocyclic)picolinates and 6-amino-2-(heterocyclic)pyrimidine-4-carboxylates and their use as herbicides” (Dow AgroSciences LLC, priority 2013, dated 2015)
Where two headings read alike, the source gives them in different places.

System: Wheat and Barley and weed species
Assay: Post-Emergent Test III: postemergent herbicidal activity in wheat and barley, visual rating after 21 d and probit GR20/GR50/GR80/GR90 (Tables 9-13)
Assay type: in vivo
Details: for GR20 HORVS / GR20 TRZAS: growth reduction of 20%; for pest or weed control at 35 g/ha / pest or weed control at 70 g/ha / pest or weed control at 140 g/ha / pest or weed control at 17.5 g/ha: post-emergence, 504 h
Method in brief: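 Greenhouse plants (~18/17 °C, 14 h photoperiod) at second–third true leaf stage sprayed at 187 L/ha with a high rate and ½× to 1/16× serial dilutions. Visual injury 0–100% versus solvent-blank controls scored at 21 d; GR20, GR50, GR80 and GR90 derived by probit analysis across rates.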

[1] = ALOMY black-grass (Alopecurus myosuroides), growth reduction of 50%, probit analysis
[2] = ALOMY black-grass (Alopecurus myosuroides), growth reduction of 80%, probit analysis
[3] = ALOMY black-grass (Alopecurus myosuroides), growth reduction of 90%, probit analysis
[4] = APESV bentgrass (Apera spica-venti), growth reduction of 50%, probit analysis
[5] = APESV bentgrass (Apera spica-venti), growth reduction of 80%, probit analysis
[6] = APESV bentgrass (Apera spica-venti), growth reduction of 90%, probit analysis
[7] = HORVS barley, spring (crop), probit analysis
[8] = Hordeum vulgare, HORVS barley, spring (crop), 35 g ai/ha, read-out: Visual Growth Reduction (%) 21 Days After Application HORVS
[9] = Hordeum vulgare, HORVS barley, spring (crop), 70 g ai/ha, read-out: Visual Growth Reduction (%) 21 Days After Application HORVS
[10] = LOLSS ryegrass, growth reduction of 50%, probit analysis
[11] = LOLSS ryegrass, growth reduction of 80%, probit analysis
[12] = LOLSS ryegrass, growth reduction of 90%, probit analysis
[13] = SETVI green foxtail (Setaria viridis), growth reduction of 50%, probit analysis
[14] = SETVI green foxtail (Setaria viridis), growth reduction of 80%, probit analysis
[15] = SETVI green foxtail (Setaria viridis), growth reduction of 90%, probit analysis
[16] = TRZAS wheat, spring (crop), probit analysis
[17] = Triticum aestivum, TRZAS wheat, spring (crop), 35 g ai/ha, read-out: Visual Growth Reduction (%) 21 Days After Application TRZAS
[18] = Triticum aestivum, TRZAS wheat, spring (crop), 70 g ai/ha, read-out: Visual Growth Reduction (%) 21 Days After Application TRZAS
[19] = ALOMY black-grass (Alopecurus myosuroides), 35 g ai/ha, read-out: Visual Growth Reduction (%) 21 Days After Application ALOMY
[20] = ALOMY black-grass (Alopecurus myosuroides), 70 g ai/ha, read-out: Visual Growth Reduction (%) 21 Days After Application ALOMY
[21] = APESV bentgrass (Apera spica-venti), 35 g ai/ha, read-out: Visual Growth Reduction (%) 21 Days After Application APESV
[22] = APESV bentgrass (Apera spica-venti), 70 g ai/ha, read-out: Visual Growth Reduction (%) 21 Days After Application APESV
[23] = LOLSS ryegrass, 35 g ai/ha, read-out: Visual Growth Reduction (%) 21 Days After Application LOLSS
[24] = LOLSS ryegrass, 70 g ai/ha, read-out: Visual Growth Reduction (%) 21 Days After Application LOLSS
[25] = SETVI green foxtail (Setaria viridis), 35 g ai/ha, read-out: Visual Growth Reduction (%) 21 Days After Application SETVI
[26] = SETVI green foxtail (Setaria viridis), 70 g ai/ha, read-out: Visual Growth Reduction (%) 21 Days After Application SETVI

COC(=O)c1nc(-c2ccc3c(c2F)OC(F)(F)O3)c(F)c(N)c1Cl [Compound 10]
GR50 ALOMY [1]: 52 g ai/ha
GR80 ALOMY [2]: 109 g ai/ha
GR90 ALOMY [3]: >140 g ai/ha
GR50 APESV [4]: 65 g ai/ha
GR80 APESV [5]: 106 g ai/ha
GR90 APESV [6]: 138 g ai/ha
GR20 HORVS [7]: 11 g ai/ha
pest or weed control at 35 g/ha [8]: 60 to 74%
pest or weed control at 70 g/ha [9]: 75 to 84%
pest or weed control at 140 g/ha (Hordeum vulgare, HORVS barley, spring (crop), 140 g ai/ha, read-out: Visual Growth Reduction (%) 21 Days After Application HORVS): 85 to 94%
Visual Growth Reduction (%) 21 Days After Application KCHSC (KCHSC kochia (Kochia scoparia), 35 g ai/ha): G (0-29)
Visual Growth Reduction (%) 21 Days After Application KCHSC (KCHSC kochia (Kochia scoparia), 70 g ai/ha): D (60-74)
Visual Growth Reduction (%) 21 Days After Application KCHSC (KCHSC kochia (Kochia scoparia), 140 g ai/ha): C (75-84)
GR50 KCHSC (KCHSC kochia (Kochia scoparia), growth reduction of 50%, probit analysis): 78 g ai/ha
GR80 KCHSC (KCHSC kochia (Kochia scoparia), growth reduction of 80%, probit analysis): 117 g ai/ha
GR90 KCHSC (KCHSC kochia (Kochia scoparia), growth reduction of 90%, probit analysis): >140 g ai/ha
GR50 LOLSS [10]: 93 g ai/ha
GR80 LOLSS [11]: >140 g ai/ha
GR90 LOLSS [12]: >140 g ai/ha
GR50 SETVI [13]: 36 g ai/ha
GR80 SETVI [14]: 63 g ai/ha
GR90 SETVI [15]: 85 g ai/ha
GR20 TRZAS [16]: 4 g ai/ha
pest or weed control at 35 g/ha [17]: 60 to 74%
pest or weed control at 70 g/ha [18]: 85 to 94%
pest or weed control at 140 g/ha (Triticum aestivum, TRZAS wheat, spring (crop), 140 g ai/ha, read-out: Visual Growth Reduction (%) 21 Days After Application TRZAS): 85 to 94%
pest or weed control at 35 g/ha [19]: 30 to 44%
pest or weed control at 70 g/ha [20]: 45 to 59%
pest or weed control at 140 g/ha (ALOMY black-grass (Alopecurus myosuroides), 140 g ai/ha, read-out: Visual Growth Reduction (%) 21 Days After Application ALOMY): 85 to 94%
pest or weed control at 35 g/ha [21]: 0 to 29%
pest or weed control at 70 g/ha [22]: 45 to 59%
pest or weed control at 140 g/ha (APESV bentgrass (Apera spica-venti), 140 g ai/ha, read-out: Visual Growth Reduction (%) 21 Days After Application APESV): 85 to 94%
pest or weed control at 35 g/ha [23]: 0 to 29%
pest or weed control at 70 g/ha [24]: 30 to 44%
pest or weed control at 140 g/ha (LOLSS ryegrass, 140 g ai/ha, read-out: Visual Growth Reduction (%) 21 Days After Application LOLSS): 60 to 74%
pest or weed control at 35 g/ha [25]: 60 to 74%
pest or weed control at 70 g/ha [26]: 75 to 84%
pest or weed control at 140 g/ha (SETVI green foxtail (Setaria viridis), 140 g ai/ha, read-out: Visual Growth Reduction (%) 21 Days After Application SETVI): 95 to 100%

Nc1c(F)c(-c2ccc3c(c2F)OC(F)(F)O3)nc(C(=O)O)c1Cl [Compound 11]
GR50 ALOMY [1]: 41 g ai/ha
GR80 ALOMY [2]: >70 g ai/ha
GR90 ALOMY [3]: >70 g ai/ha
GR50 APESV [4]: 25 g ai/ha
GR80 APESV [5]: 52 g ai/ha
GR90 APESV [6]: >70 g ai/ha
GR20 HORVS [7]: 3 g ai/ha
pest or weed control at 17.5 g/ha (Hordeum vulgare, HORVS barley, spring (crop), 17.5 g ai/ha, read-out: Visual Growth Reduction (%) 21 Days After Application HORVS): 60 to 74%
pest or weed control at 35 g/ha [8]: 60 to 74%
pest or weed control at 70 g/ha [9]: 85 to 94%
GR50 LOLSS [10]: 31 g ai/ha
GR80 LOLSS [11]: 62 g ai/ha
GR90 LOLSS [12]: >70 g ai/ha
Visual Growth Reduction (%) 21 Days After Application MATCH (MATCH wild chamomile (Matricaria recutita L.), 17.5 g ai/ha): G (0-29)
Visual Growth Reduction (%) 21 Days After Application MATCH (MATCH wild chamomile (Matricaria recutita L.), 35 g ai/ha): F (30-44)
Visual Growth Reduction (%) 21 Days After Application MATCH (MATCH wild chamomile (Matricaria recutita L.), 70 g ai/ha): E (45-59)
GR50 MATCH (MATCH wild chamomile (Matricaria recutita L.), growth reduction of 50%, probit analysis): 65 g ai/ha
GR80 MATCH (MATCH wild chamomile (Matricaria recutita L.), growth reduction of 80%, probit analysis): >70 g ai/ha
GR90 MATCH (MATCH wild chamomile (Matricaria recutita L.), growth reduction of 90%, probit analysis): >70 g ai/ha
GR50 SETVI [13]: 18 g ai/ha
GR80 SETVI [14]: 37 g ai/ha
GR90 SETVI [15]: 53 g ai/ha
GR20 TRZAS [16]: 0.12 g ai/ha
pest or weed control at 17.5 g/ha (Triticum aestivum, TRZAS wheat, spring (crop), 17.5 g ai/ha, read-out: Visual Growth Reduction (%) 21 Days After Application TRZAS): 75 to 84%
pest or weed control at 35 g/ha [17]: 85 to 94%
pest or weed control at 70 g/ha [18]: 85 to 94%
Visual Growth Reduction (%) 21 Days After Application VERPE (VERPE bird's-eye speedwell (veronica persica), 17.5 g ai/ha): E (45-59)
Visual Growth Reduction (%) 21 Days After Application VERPE (VERPE bird's-eye speedwell (veronica persica), 35 g ai/ha): D (60-74)
Visual Growth Reduction (%) 21 Days After Application VERPE (VERPE bird's-eye speedwell (veronica persica), 70 g ai/ha): B (85-94)
GR50 VERPE (VERPE bird's-eye speedwell (veronica persica), growth reduction of 50%, probit analysis): 17 g ai/ha
GR80 VERPE (VERPE bird's-eye speedwell (veronica persica), growth reduction of 80%, probit analysis): 41 g ai/ha
GR90 VERPE (VERPE bird's-eye speedwell (veronica persica), growth reduction of 90%, probit analysis): 65 g ai/ha
pest or weed control at 17.5 g/ha (ALOMY black-grass (Alopecurus myosuroides), 17.5 g ai/ha, read-out: Visual Growth Reduction (%) 21 Days After Application ALOMY): 30 to 44%
pest or weed control at 35 g/ha [19]: 45 to 59%
pest or weed control at 70 g/ha [20]: 60 to 74%
pest or weed control at 17.5 g/ha (APESV bentgrass (Apera spica-venti), 17.5 g ai/ha, read-out: Visual Growth Reduction (%) 21 Days After Application APESV): 30 to 44%
pest or weed control at 35 g/ha [21]: 60 to 74%
pest or weed control at 70 g/ha [22]: 85 to 94%
pest or weed control at 17.5 g/ha (LOLSS ryegrass, 17.5 g ai/ha, read-out: Visual Growth Reduction (%) 21 Days After Application LOLSS): 45 to 59%
pest or weed control at 35 g/ha [23]: 60 to 74%
pest or weed control at 70 g/ha [24]: 75 to 84%
pest or weed control at 17.5 g/ha (SETVI green foxtail (Setaria viridis), 17.5 g ai/ha, read-out: Visual Growth Reduction (%) 21 Days After Application SETVI): 45 to 59%
pest or weed control at 35 g/ha [25]: 75 to 84%
pest or weed control at 70 g/ha [26]: 85 to 94%
